According to EP0335369A2, “New anthracycline derivatives and processes for the preparation of the same” (priority 1988, dated 1989):
Converted amounts (≈) assume the structure as drawn. Like-named read-outs stand apart in the source and are kept apart here.

Experiments:
Leukemia L-1210 cells [1] = assay: Test 3: antitumor activity against leukemia induced in CDF1 mice by Leukemia L-1210 cells (procedure of Test 1 repeated); format: in vivo; conditions: for % Increase in life-span (T/C, %): intraperitoneally once per day for 9 consecutive days, observation 60 days
Experimental: Antitumor activities against leukemia in CDF1 mice as induced by mouse leukemia, Leukemia L-1210 cells
To evaluate the antitumor effects of the compounds of the formula (I') according to the sixth aspect of this invention against experimental tumors in animals, the procedure of Test 1 given hereinbefore is repeated. Thus, CDF1 mice were intraperitoneally transplanted with cells of Leukemia L-1210 (at a dose of 1 x 10^5 cells/mouse). After an elapsed time of 24 hours from the tumor transplantation, a test compound of the formula (I') of the sixth aspect invention to be evaluated was administered intraperitoneally for 9 consecutive days once per day. Observation was made for 60 day, where survival days of each mouse tested were recorded. In comparison with the control test wherein mice were treated with the administration of physiological saline alone, the increase (%) in the life-span of the treated mice was calculated as T/C %, where T is the mean survival days of the treated animals and C is the mean survival days of the untreated control animals. For the comparison, daunomycin and adriamycin were also tested in the same manner.

Leukemia L-1210 cells [2] = assay: Test 1: antitumor activity against leukemia induced in CDF1 mice by Leukemia L-1210 cells (life-span increase); format: in vivo; conditions: intraperitoneally once per day for 9 consecutive days, observation 60 days
Experimental: Antitumor activities against leukemia in CDF, mice as induced by mouse leukemia, Leukemia L-1210 cells
After an elapsed time of 24 hours, a compounds of the formula (I) of this invention to be tested was administered intraperitoneally for 9 consecutive days once per day. Observation was made for 60 days, where survival days of each mouse tested were recorded. In comparison with the control test wherein mice were treated with the administration of physiological saline alone, the increase (%) in the life-span of the treated mice was calculated as T/C %, where T is the mean survival days of the treated animals and C is the mean survival days of the untreated control animals. For the comparison, daunomycin and adriamycin were also tested in the same manner.

[3] = Solubility in phosphate buffer solution of pH 7.4 at room temperature; format: physicochemical; conditions: for solubility: aqueous buffer, room temperature, read-out: Solubility
[4] = compounds (Ic), phosphate buffer solution of pH 7.4 (0.05 M KH2PO4-NaOH)

Row | Structure (SMILES) | % Increase in life-span (T/C, %) (Leukemia L-1210 cells [1]; Dose 0.3 mg/kg/day) [%] | % Increase in life-span (T/C, %) (Leukemia L-1210 cells [1]; Dose 0.6 mg/kg/day) [%] | % Increase in life-span (T/C, %) (Leukemia L-1210 cells [1]; Dose 1.25 mg/kg/day) [%] | % Increase in life-span (T/C, %) (Leukemia L-1210 cells [1]; Dose 2.5 mg/kg/day) [%] | % Increase in life-span (T/C, %) (Leukemia L-1210 cells [1]; Dose 5 mg/kg/day) [%] | complete cure of the leukemia in the mice (Leukemia L-1210 cells [1]; intraperitoneally, 0.15 mg/kg/day) | % Increase in life-span (T/C, %) (Leukemia L-1210 cells [1]; Dose 0.15 mg/kg/day) [%] | % Increase in life-span (T/C, %) (Leukemia L-1210 cells [2]; Dose 0.15 mg/kg/day) [%] | % Increase in life-span (T/C, %) (Leukemia L-1210 cells [2]; Dose 0.3 mg/kg/day) [%] | % Increase in life-span (T/C, %) (Leukemia L-1210 cells [2]; Dose 0.6 mg/kg/day) [%] | % Increase in life-span (T/C, %) (Leukemia L-1210 cells [2]; Dose 1.25 mg/kg/day) [%] | % Increase in life-span (T/C, %) (Leukemia L-1210 cells [2]; Dose 2.5 mg/kg/day) [%] | % Increase in life-span (T/C, %) (Leukemia L-1210 cells [2]; Dose 5 mg/kg/day) [%] | solubility ([3]; compounds (I'-c) or (I'-d), phosphate buffer solution of pH 7.4 (0.05M KH2PO4-NaOH)) [mg/mL] | solubility in the phosphate buffer solution (in words) ([3]; phosphate buffer solution (0.05 M KH2PO4-NaOH) at pH 7.4) | solubility [3, 4] [mg/mL]
1 | C[C@@H]1O[C@@H](O[C@H]2C[C@](O)(C(=O)CO)Cc3c(O)c4c(c(O)c32)C(=O)c2ccccc2C4=O)[C@H](F)[C@H](O)[C@@H]1O [Example 13, 4-demethoxy-7-O-(2,6-dideoxy-2-fluoro-a-L-talopyranosyl)adriamycinone] | >348 | >427 | 96 | 80 | 77 | three mice were completely cured among the treated four mice | – | – | – | – | – | – | – | – | – | –
2 | CC(=O)[C@]1(O)Cc2c(O)c3c(c(O)c2[C@@H](O[C@@H]2O[C@@H](C)[C@@H](O)[C@@H](O)[C@H]2F)C1)C(=O)c1ccccc1C3=O [Example 12, 4-demethoxy-7-O-(2,6-dideoxy-2-fluoro-α-L-talopyranosyl)daunomycinone] | 138 | 202 | > 436 | 101 | 80 | – | 106 | – | – | – | – | – | – | – | – | –
3 | COc1cccc2c1C(=O)c1c(O)c3c(c(O)c1C2=O)C[C@@](O)(C(C)=O)C[C@@H]3O[C@@H]1O[C@@H](C)[C@H](O)[C@@H](O)[C@H]1F [Example 1, 7-0-(2,6-dideoxy-2-fluoro-a-L-mannopyranosyl)daunomycinone] | – | – | – | – | – | – | – | 109 | 123 | 189 | >309 | 280 | 160 | – | – | –
4 | C[C@@H]1O[C@@H](O[C@H]2C[C@](O)(C(=O)CO)Cc3c(O)c4c(c(O)c32)C(=O)c2ccccc2C4=O)[C@H](F)[C@H](O)[C@H]1O [Example 4, 7-O-(2,6-dideoxy-2-fluoro-a-L-mannopyranosyl)-4-demethoxyadriamycinone] | – | – | – | – | – | – | – | >534 | >686 | >686 | 141 | 53 | 22 | – | – | –
5 | C[C@@H]1O[C@@H](O[C@H]2C[C@](O)(C(=O)COC(=O)CCCC(=O)O)Cc3c(O)c4c(c(O)c32)C(=O)c2ccccc2C4=O)[C@H](F)[C@H](O)[C@@H]1O [Example 16, 4-demethoxy-7-O-(2,6-dideoxy-2-fluoro-α-L-talopyranosyl)adriamycinone 14-0-hemiglutarate] | – | – | – | – | – | – | – | – | – | – | – | – | – | 10 (≈ 15.5 mM) | soluble | –
6 | COc1cccc2c1C(=O)c1c(O)c3c(c(O)c1C2=O)C[C@@](O)(C(=O)CO)C[C@@H]3O[C@@H]1O[C@@H](C)[C@@H](O)[C@@H](O)[C@H]1F [7-0-(2,6-Dideoxy-2-fluoro-α-L-talopyranosyl) adriamycinone, reference compound] | 182 | 185 | 275 | >350 | >750 | – | 127 | 127 | 182 | 185 | 275 | >350 | >750 | – | – | –
7 | COc1cccc2c1C(=O)c1c(O)c3c(c(O)c1C2=O)C[C@@](O)(C(=O)COC(=O)CCCCC(=O)O)C[C@@H]3O[C@@H]1O[C@@H](C)[C@H](O)[C@@H](O)[C@H]1F [Example 8, 7-0-(2,6-dideoxy-2-fluoro-a-L-mannopyranosyl)adriamycinone 14-0-hemiadipate] | – | – | – | – | – | – | – | – | – | – | – | – | – | – | – | 32 (≈ 46.3 mM)
8 | COc1cccc2c1C(=O)c1c(O)c3c(c(O)c1C2=O)C[C@@](O)(C(=O)COC(=O)CCC(=O)O)C[C@@H]3O[C@@H]1O[C@@H](C)[C@H](O)[C@@H](O)[C@H]1F [Example 6, 7-O-(2,6-dideoxy-2-fluoro-α-L-mannopyranosyl)adriamycinone 14-0-hemisuccinate] | – | – | – | – | – | – | – | – | – | – | – | – | – | – | – | 25 (≈ 37.7 mM)
9 | COc1cccc2c1C(=O)c1c(O)c3c(c(O)c1C2=O)C[C@@](O)(C(=O)CO)C[C@@H]3O[C@@H]1O[C@@H](C)[C@H](O)[C@@H](O)[C@H]1F [Example 3, 7-O-(2,6-dideoxy-2-fluoro-a-L-mannopyranosyl)adriamycinone] | – | – | – | – | – | – | – | 157 | >440 | >363 | >426 | 231 | 211 | – | – | –
10 | COc1cccc2c1C(=O)c1c(O)c3c(c(O)c1C2=O)C[C@@](O)(C(=O)CO)C[C@@H]3O[C@H]1C[C@H](N)[C@H](O)[C@H](C)O1 [Adriamycin, reference compound] | 136 | 142 | 222 | 228 | 191 | – | 123 | 123 | 136 | 142 | 222 | 228 | 191 | – | – | –
11 | COc1cccc2c1C(=O)c1c(O)c3c(c(O)c1C2=O)C[C@@](O)(C(C)=O)C[C@@H]3O[C@@H]1O[C@@H](C)[C@@H](O)[C@@H](O)[C@H]1F [7-0-(2,6-Dideoxy-2-fluoro-α-L-talopyranosyl) daunomycinone, reference compound] | 105 | 118 | 171 | 217 | 184 | – | 105 | 105 | 105 | 118 | 171 | 217 | 184 | – | – | –
12 | CC(=O)[C@]1(O)Cc2c(O)c3c(c(O)c2[C@@H](O[C@@H]2O[C@@H](C)[C@H](O)[C@@H](O)[C@H]2F)C1)C(=O)c1ccccc1C3=O [Example 2, 4-demethoxy-7-O-(2,6-dideoxy-2-fluoro-α-L-mannopyranosyl)daunomycinone] | – | – | – | – | – | – | – | 113 | 163 | 309 | > 686 | 134 | 73 | – | – | –
13 | COc1cccc2c1C(=O)c1c(O)c3c(c(O)c1C2=O)C[C@@](O)(C(C)=O)C[C@@H]3O[C@H]1C[C@H](N)[C@H](O)[C@H](C)O1 [Daunomycin, reference compound] | 133 | 166 | 193 | 151 | 117 | – | 130 | 130 | 133 | 166 | 193 | 151 | 117 | – | – | –
